# Where no end group is shown, it is not given here.
# Columns and labels:
# [1] = test system: human keratinocytes cells (HaCaT cells)
# Protocol: (§1) Rat pulmonary artery smooth muscle cells (RPASMCs, primary cells separated by our laboratory) and human keratinocytes cells (HaCaT cells, Mingjing Biology, Shanghai, China) were cultured in high-glucose Dulbecco’s Modified Eagle Medium (DMEM), supplemented with 10% fetal bovine serum (FBS). Human umbilical vein endothelial cells (HUVECs, BeNa Culture Collection, Kunshan City, China) were cultured in the MCDB131 medium supplemented with 20% FBS and growth factor additives. Human embryonic kidney cells (293, Procell Life Science & Technology Co., Ltd., Wuhan, China) were cultured in minimum Eagle’s medium (MEM) supplemented with 10% FBS. All cells were cultured at 37 °C, with 5% CO2. All animals used in this study were supplied by the Medical Animal Test Center of Xi’an Jiaotong University and study protocols were approved by the Institutional Animal Care and Use Committee of the Ethics Committee of Health Science Center, Xi’an Jiaotong University (Ethical approval code: 2017-609).
# (§2) Cells were inoculated in 96-well plates at 5 × 10^3 cells/well and cultured at 37 °C under 5% CO2. The supernatant was removed, and the cells were washed three times with PBS. Next, 100 μL of fresh culture medium containing different antimicrobial peptides was added (peptide concentration: 0, 1.0, 2.0, 5.0, 10, 25, 50 and 100 μM). Each concentration was repeated five times. Then, 10 μL of CCK-8 reagent was added 48 h later, followed by another two hours of incubation. The absorbance at 450 nm was measured using the same Multilabel Reader. Cellular growth viability was calculated using the following equation:Viability (%) = (mean absorbance value of treatment group − mean absorbance value of blank group group)/(mean absorbance value of control group − mean absorbance value of blank group) × 100. (2)
# [2] = test system: Rat pulmonary artery smooth muscle cells (RPASMCs)
# Protocol: as §1, §2
# [3] = test system: Human umbilical vein endothelial cells (HUVECs)
# Protocol: as §1, §2
# [4] = test system: Pseudomonas aeruginosa (P. aeruginosa, ATCC27853); type: cell-based; conditions: 1 × 10^6 CFU/mL, MHB, 12 h, peptide 0-20 μM, absorbance at 600 nm, n = 5
# From the text: (§3) Pseudomonas aeruginosa (P. aeruginosa, ATCC27853), Methicillin-Resistant Staphylococcus aureus (MRSA, 2104270609, clinically isolated strain), Escherichia coli (E. coli, ATCC25922), Klebsiella pneumoniae (K. pneumoniae, ATCC700603), Enterococcus faecalis (E. faecalis, ATCC29212), Candida krusei (C. krusei, ATCC6258), Candida albicans (C. albicans, ATCC90028), and Candida glabrata (C. glabrata, ATCCMYA-2950) were obtained from the First Affiliated Hospital of Xi’an Jiaotong University. Bacterial strains were cultured in MHA or MHB. Fungal strains were cultured in PDA or PDB.
# (§4) Strains were incubated in MHB or PDB. After growing for 12–16 h at 37 °C, 200 rpm, 100 μL of 1 × 10^6 CFU/mL of the strains was seeded into 96-well plates and incubated with fresh culture medium containing various antimicrobial peptides (peptide concentration: 0, 0.5, 1.0, 2.0, 3.0, 5.0, 10, 15 or 20 μM) for 12 h. Each concentration was repeated five times. Absorbance at 600 nm was measured using the Multilabel Reader Varioskan Flash (Thermo Fisher). […] (1)
# [5] = test system: Methicillin-Resistant Staphylococcus aureus (MRSA, 2104270609, clinically isolated strain); type: cell-based; conditions: 1 × 10^6 CFU/mL, MHB, 12 h, peptide 0-20 μM, absorbance at 600 nm, n = 5
# From the text: as §3, §4
# [6] = test system: Candida glabrata (C. glabrata, ATCCMYA-2950); type: cell-based; conditions: 1 × 10^6 CFU/mL, PDB, 12 h, peptide 0-20 μM, absorbance at 600 nm, n = 5
# From the text: as §3, §4
# [7] = test system: Candida krusei (C. krusei, ATCC6258); type: cell-based; conditions: 1 × 10^6 CFU/mL, PDB, 12 h, peptide 0-20 μM, absorbance at 600 nm, n = 5
# From the text: as §3, §4
# [8] = test system: Candida albicans (C. albicans, ATCC90028); type: cell-based; conditions: 1 × 10^6 CFU/mL, PDB, 12 h, peptide 0-20 μM, absorbance at 600 nm, n = 5
# From the text: as §3, §4
# [9] = test system: Klebsiella pneumoniae (K. pneumoniae, ATCC700603); type: cell-based; conditions: 1 × 10^6 CFU/mL, MHB, 12 h, peptide 0-20 μM, absorbance at 600 nm, n = 5
# From the text: as §3, §4
# [10] = test system: Escherichia coli (E. coli, ATCC25922); type: cell-based; conditions: 1 × 10^6 CFU/mL, MHB, 12 h, peptide 0-20 μM, absorbance at 600 nm, n = 5
# From the text: as §3, §4
# [11] = test system: Enterococcus faecalis (E. faecalis, ATCC29212); type: cell-based; conditions: 1 × 10^6 CFU/mL, MHB, 12 h, peptide 0-20 μM, absorbance at 600 nm, n = 5
# From the text: as §3, §4
sequence,measurement,setting,value
GFLFKLIPKAIKKLISKFK [GK-19],"cytotoxicity at the effective antimicrobial concentration, HaCaT",[1],almost no apoptotic cells
same,"cells surviving, HaCaT","[1]; 48 h, 100 μM",more than 42%
same,"cytotoxicity at the effective antimicrobial concentration, RPASMCs",[2],almost no apoptotic cells
same,"cell viability, RPASMCs",[2]; 100 µM,less than 20%
same,"cytotoxicity at the effective antimicrobial concentration, HUVECs",[3],almost no apoptotic cells
same,"cell viability, HUVECs",[3]; 100 µM,less than 20%
same,"Minimum inhibitory concentration (MIC), P. aeruginosa",[4],5 µM
same,"Minimum inhibitory concentration (MIC), MRSA",[5],5 µM
same,"Minimum inhibitory concentration (MIC), C. glabrata",[6],10 µM
same,"Minimum inhibitory concentration (MIC), C. krusei",[7],5 µM
same,"Minimum inhibitory concentration (MIC), C. albicans",[8],10 µM
same,"Minimum inhibitory concentration (MIC), K. pneumoniae",[9],5 µM
same,"Minimum inhibitory concentration (MIC), E. coli",[10],3 µM
same,"Minimum inhibitory concentration (MIC), E. faecalis",[11],3 µM

# From article PMC9503518, “Antibacterial and Antifungal Properties of a Novel Antimicrobial Peptide GK-19 and Its Application in Skin and Soft Tissue Infections Induced by MRSA or Candida albicans” (Pharmaceutics, 2022)
